Test results as given in patent US20040092517A1, “Phenyl derivatives and their use in the treatment of thromboembolic disorders or tumours” (priority 2001, published 2004).
pIC50: −log10 of the molar value. Counter-ions that a name gives are not always drawn.

Legend:
factor VIIa = molecular target: T1, factor VIIa (Homo sapiens, UniProt P08709); experiment: Inhibition of factor VIIa; type: biochemical
T1 sequence (P08709 213-466 limits assumed): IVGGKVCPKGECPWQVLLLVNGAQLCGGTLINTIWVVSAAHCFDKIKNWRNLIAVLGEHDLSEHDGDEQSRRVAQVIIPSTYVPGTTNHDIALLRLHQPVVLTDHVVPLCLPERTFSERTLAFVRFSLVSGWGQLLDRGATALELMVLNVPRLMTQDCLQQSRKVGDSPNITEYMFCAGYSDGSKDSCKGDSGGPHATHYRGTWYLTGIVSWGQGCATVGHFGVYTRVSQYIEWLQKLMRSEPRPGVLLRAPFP
T1 sequence (P08709 61-212 partner limits assumed): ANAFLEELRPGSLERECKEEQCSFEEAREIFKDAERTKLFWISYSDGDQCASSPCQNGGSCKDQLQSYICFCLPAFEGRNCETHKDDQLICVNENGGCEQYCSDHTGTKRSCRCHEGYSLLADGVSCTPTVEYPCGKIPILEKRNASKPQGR
Source text: Coagulation factor VIIa initiates the extrinsic part of the coagulation cascade after binding to tissue factor and contributes to the activation of factor X to give factor Xa. Inhibition of factor VIIa thus prevents the formation of factor Xa and thus subsequent thrombin formation. The inhibition of factor VIIa by the compounds according to the invention and the measurement of the anticoagulant and antithrombotic activity can be determined by conventional in-vitro or in-vivo methods. A conventional method for the measurement of the inhibition of factor VIIa is described, for example, by H. F. Ronning et al. in Thrombosis Research 1996, 84, 73-81.

factor Xa = factor Xa (Homo sapiens, UniProt P00742); experiment: Inhibition of factor Xa; type: biochemical
factor Xa, sequence (P00742 235-488 limits assumed): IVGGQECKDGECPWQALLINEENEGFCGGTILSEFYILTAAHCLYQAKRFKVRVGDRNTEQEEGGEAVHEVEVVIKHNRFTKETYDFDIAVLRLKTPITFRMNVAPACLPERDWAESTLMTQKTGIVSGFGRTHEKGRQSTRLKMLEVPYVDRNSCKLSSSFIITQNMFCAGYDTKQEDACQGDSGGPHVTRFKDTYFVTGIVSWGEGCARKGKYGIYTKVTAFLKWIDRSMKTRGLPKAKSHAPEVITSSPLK
factor Xa, sequence (P00742 41-179 partner limits assumed): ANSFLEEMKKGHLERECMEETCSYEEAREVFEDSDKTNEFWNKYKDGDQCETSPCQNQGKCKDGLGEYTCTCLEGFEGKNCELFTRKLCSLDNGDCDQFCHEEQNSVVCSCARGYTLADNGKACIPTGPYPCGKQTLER
Source text: The inhibition of factor Xa by the compounds according to the invention and the measurement of the anticoagulant and antithrombotic activity can be determined by conventional in-vitro or in-vivo methods. A suitable method is described, for example, by J. Hauptmann et al. in Thrombosis and Haemostasis 1990, 63, 220-223.
The inhibition of factor Xa can be measured, for example, by the method of T. Hara et al. in Thromb. Haemostas. 1994, 71, 314-319.

Row | Compound | pIC50 (factor VIIa) | pIC50 (factor Xa)
1 | CC(C)(C)NS(=O)(=O)c1ccccc1-c1ccc(NC(C(=O)Nc2cccc(C(=N)N)c2)c2ccccc2)cc1 (stereo not drawn) [Example 5.5, N-(3-amidinophenyl)-2-(2′-tert-butylaminosulfonylbiphenyl-4-amino)-2-phenylacetamide] | 6.26 | 6.85
2 | CS(=O)(=O)c1ccccc1-c1ccc(OC(C(=O)Nc2cccc(C(=N)N)c2)c2ccccc2)cc1 (stereo not drawn) [Example 1, N-(3-amidinophenyl)-2-(2′-methanesulfonylbiphenyl-4-oxyl)-2-phenylacetamide] | 7.34 | 6.96
3 | N=C(N)c1cccc(NC(=O)C(Nc2ccc(-c3ccccc3S(N)(=O)=O)cc2)c2ccccc2)c1 (stereo not drawn) [Example 5.6, N-(3-amidinophenyl)-2-(2′-aminosulfonylbiphenyl-4-amino)-2-phenylacetamide, trifluoroacetate] | 7.89 | 7.70
